Laboratory results reported in ChEMBL document CHEMBL1201862, “PubChem BioAssay data set” (2004).
Activity calls are given as the source filed them. Unless noted, the calls are words filed in the database; no cut-off is given here.

Legend:
[1] = blockers of CRF-binding protein–CRF-R2 complex – cell-based, uHTS hits, 384-well, dose response (AID 651639); assay type: functional, Homo sapiens; conditions: read-out: IC50_Mean
CAAX prenyl protease 2 [2] = target: T1, CAAX prenyl protease 2 (Saccharomyces cerevisiae S288c, UniProt Q03530); assay type: biochemical
T1 sequence (Q03530 whole entry): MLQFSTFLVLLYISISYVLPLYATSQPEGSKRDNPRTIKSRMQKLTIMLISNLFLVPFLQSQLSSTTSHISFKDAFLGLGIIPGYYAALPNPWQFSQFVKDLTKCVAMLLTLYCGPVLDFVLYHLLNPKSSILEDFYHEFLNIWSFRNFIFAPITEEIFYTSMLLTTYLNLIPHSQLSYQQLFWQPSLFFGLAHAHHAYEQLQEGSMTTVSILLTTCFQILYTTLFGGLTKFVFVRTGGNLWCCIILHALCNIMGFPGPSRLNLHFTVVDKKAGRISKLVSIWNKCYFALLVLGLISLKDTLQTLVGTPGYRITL

[3] = target: T2, Corticotropin-releasing factor receptor 2/Corticotropin-releasing factor-binding protein (Homo sapiens, UniProt P24387+Q13324); experiment: activators of CRF receptor 2 with binding protein – uHTS hits, confirmation (AID 602473); assay type: functional; conditions: read-out: EC50_Mean
T2 sequence (Q13324 whole entry): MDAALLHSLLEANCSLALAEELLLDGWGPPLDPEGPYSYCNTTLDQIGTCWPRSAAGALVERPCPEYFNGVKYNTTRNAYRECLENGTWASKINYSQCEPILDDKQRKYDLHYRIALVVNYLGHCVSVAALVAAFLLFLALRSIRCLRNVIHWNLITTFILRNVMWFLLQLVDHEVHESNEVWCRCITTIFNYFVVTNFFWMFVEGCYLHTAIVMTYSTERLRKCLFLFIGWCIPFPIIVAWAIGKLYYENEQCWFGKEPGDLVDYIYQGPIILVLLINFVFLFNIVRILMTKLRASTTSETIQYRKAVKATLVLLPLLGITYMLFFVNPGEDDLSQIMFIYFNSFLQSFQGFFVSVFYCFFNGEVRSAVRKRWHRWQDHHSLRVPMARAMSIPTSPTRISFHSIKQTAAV
T2 sequence (P24387 whole entry): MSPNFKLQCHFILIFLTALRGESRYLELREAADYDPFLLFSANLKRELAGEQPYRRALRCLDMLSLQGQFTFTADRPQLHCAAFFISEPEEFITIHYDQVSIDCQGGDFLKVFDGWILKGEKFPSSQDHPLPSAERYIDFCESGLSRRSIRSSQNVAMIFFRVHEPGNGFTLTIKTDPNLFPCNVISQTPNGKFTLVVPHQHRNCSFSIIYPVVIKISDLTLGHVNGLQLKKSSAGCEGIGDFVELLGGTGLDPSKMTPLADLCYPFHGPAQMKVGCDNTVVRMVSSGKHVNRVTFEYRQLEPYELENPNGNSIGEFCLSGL

CAAX prenyl protease 2 [4] = target: T1, CAAX prenyl protease 2; experiment: inhibition of Rce1p peptide cleavage – biochemical, plate reader, dry powder retest, dose response (AID 588851)
[5] = target: T2, Corticotropin-releasing factor receptor 2/Corticotropin-releasing factor-binding protein; experiment: Dose Response confirmation of uHTS hits for small molecule antagonists of the CRF-binding protein and CRF-R2 receptor complex.; assay type: functional; conditions: read-out: IC50_Mean
X-box-binding protein 1 = X-box-binding protein 1 (Homo sapiens, UniProt P17861); assay type: functional, Cricetulus griseus;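 further: confirmatory dose-response counter-screen serving a CHOP assay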
[6] = target: Glycogen synthase kinase-3 alpha (Homo sapiens, UniProt P49840); experiment: Inhibition of Human GSK-3 alpha Activity Measured in Biochemical System Using Microfluidics - 2063-06_Inhibitor_Dose_DryPowder_Activity_Set2. [Related pubchem assays (depositor defined):AID2709]
[7] = target: Cyclin-dependent kinase 5/CDK5 activator 1 (Homo sapiens, UniProt Q00535); experiment: human CDK5 activity blockade – biochemical, microfluidic mobility shift, dry powder, selectivity assay for GSK-3 alpha inhibitor project, dose response (AID 588430)
[8] = target: Glycogen synthase kinase-3 beta (Homo sapiens, UniProt P49841); experiment: Inhibition of Human GSK-3 beta Activity Measured in Biochemical System Using Microfluidics - 2063-05_Inhibitor_Dose_DryPowder_Activity_Set2. [Related pubchem assays (depositor defined):AID2709]
[9] = target: Protein disulfide-isomerase (Homo sapiens, UniProt P07237); experiment: inhibition of PDI-driven insulin aggregation – biochemical, turbidity, absorbance, cherry-picked samples, dose response (AID 602350); assay type: functional
[10] = target: Multidrug resistance protein CDR1 (Candida albicans, UniProt P43071); experiment: inhibition of Nile Red efflux via Candida CDR1 – S. cerevisiae AD1-8u, singleplex, Cherry Pick1 hits, dose response (AID 588606); assay type: functional
Candida albicans [11] = experiment: antifungal activity against resistant Candida strain – CaCi-8, fluconazole, Alamar Blue, dry powder, dose response (AID 488807); assay type: functional, organism-based
[12] = fluconazole-exposed Candida albicans growth modulators – fluorescence, retest, confirmation (AID 2467); assay type: functional, cell-based
[13] = NIH-3T3 fibroblast cytotoxicity, dose response, cytotoxicity control, cell-based, fluorescence, Alamar Blue, secondary assay (AID 2327); assay type: functional;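 further: NIH-3T3 mouse fibroblasts cultured with fluconazole at 8 µg/mL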
Candida albicans [14] = experiment: Candida growth effect without fluconazole – C. albicans CaCi-2, dry powder, counter-screen for antifungal drug resistance project, dose response (AID 488802); assay type: functional, organism-based
[15] = target: T3, High affinity choline transporter 1 (Homo sapiens, UniProt Q9GZV3); experiment: human choline transporter potentiators, potency – cell-based, 10-point CRC, membrane potential dye, dose response (AID 602376); assay type: functional
T3 sequence (Q9GZV3 whole entry): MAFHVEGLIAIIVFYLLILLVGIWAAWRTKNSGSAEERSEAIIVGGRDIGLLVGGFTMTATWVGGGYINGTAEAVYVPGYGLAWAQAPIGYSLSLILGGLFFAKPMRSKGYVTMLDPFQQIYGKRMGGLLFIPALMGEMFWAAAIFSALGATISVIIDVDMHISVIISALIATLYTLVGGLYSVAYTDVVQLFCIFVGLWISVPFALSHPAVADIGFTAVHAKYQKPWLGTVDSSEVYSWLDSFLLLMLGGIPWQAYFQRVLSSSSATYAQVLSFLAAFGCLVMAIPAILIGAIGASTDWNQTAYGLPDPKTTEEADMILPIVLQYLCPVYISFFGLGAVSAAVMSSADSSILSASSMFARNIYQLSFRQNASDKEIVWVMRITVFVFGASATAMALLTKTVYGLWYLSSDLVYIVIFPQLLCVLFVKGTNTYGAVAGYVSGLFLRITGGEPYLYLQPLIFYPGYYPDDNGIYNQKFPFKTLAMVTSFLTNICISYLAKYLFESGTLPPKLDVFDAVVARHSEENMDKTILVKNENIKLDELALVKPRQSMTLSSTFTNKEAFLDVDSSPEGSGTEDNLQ

[16] = target: G-protein coupled receptor 55 (Homo sapiens, UniProt Q9Y2T6); experiment: selective activators of receptor GPR55 – imaging, U2OS cells, beta-arrestin-GFP redistribution, primary screen (AID 1961); assay type: functional
[17] = A cell-based HTS for delayed death inhibitors of the malarial parasite plastid Measured in Microorganism System Using Plate Reader - 2126-01_Inhibitor_Dose_DryPowder_Activity.; assay type: functional, organism-based
[18] = A cell-based HTS for delayed death inhibitors of the malarial parasite plastid Measured in Microorganism System Using Plate Reader - 2126-02_Inhibitor_Dose_DryPowder_Activity.; assay type: functional, organism-based
Erythrocyte = experiment: FACS-based assay to assess parasite growth inhibition 96 hr Measured in Cell-Based System Using Flow Cytometry - 2126-05_Inhibitor_Dose_DryPowder_Activity. [Related pubchem assays (depositor defined):AID488774]; assay type: functional; conditions: Homo sapiens
[19] = FACS-based assay to assess parasite growth inhibition 48 hr Measured in Cell-Based System Using Flow Cytometry - 2126-03_Inhibitor_Dose_DryPowder_Activity. [Related pubchem assays (depositor defined):AID488774]; assay type: functional; conditions: Homo sapiens
[20] = viability loss in Vero cells – cell-based, purified and synthesized samples, set 8, cytotoxicity control for M. tuberculosis inhibitor project (AID 602431); assay type: functional; conditions: Mycobacterium tuberculosis
[21] = HepG2 cell cytotoxicity, cytotoxicity control, set 6 (AID 602432); assay type: functional; conditions: Mycobacterium tuberculosis
[22] = THP-1 cell cytotoxicity, cytotoxicity control, set 6 (AID 602433); assay type: functional; conditions: Mycobacterium tuberculosis
[23] = target: ALK tyrosine kinase receptor (Homo sapiens, UniProt Q9UM73); assay type: functional;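 further: ALK tested as one member of a kinase panel screen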
[24] = target: Cyclin-dependent kinase 19 (Homo sapiens, UniProt Q9BWU1); experiment: Navigating the Kinome. Panel member name: CDC2L6; assay type: functional
[25] = Vero cell cytotoxicity, dose response, cytotoxicity control for M. tuberculosis growth inhibitor project, Vero cells, purified and synthesized compounds, set 4 (AID 504854); assay type: functional; conditions: Mycobacterium tuberculosis
HEK293 [26] = experiment: membrane integrity loss in HEK cells – cell-based, fluorescence, cytotoxicity control for IDE activator project, dose response (AID 588440); assay type: functional; conditions: Homo sapiens;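 further: cytotoxicity by LDH release measuring loss of membrane integrity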
Insulin-degrading enzyme [27] = target: T4, Insulin-degrading enzyme (Homo sapiens, UniProt P14735); experiment: cellular IDE activation of Abeta substrate cleavage – fluorescence polarization, HEK cells, dose response (AID 588439); assay type: functional, cell-based
T4 sequence (P14735 whole entry): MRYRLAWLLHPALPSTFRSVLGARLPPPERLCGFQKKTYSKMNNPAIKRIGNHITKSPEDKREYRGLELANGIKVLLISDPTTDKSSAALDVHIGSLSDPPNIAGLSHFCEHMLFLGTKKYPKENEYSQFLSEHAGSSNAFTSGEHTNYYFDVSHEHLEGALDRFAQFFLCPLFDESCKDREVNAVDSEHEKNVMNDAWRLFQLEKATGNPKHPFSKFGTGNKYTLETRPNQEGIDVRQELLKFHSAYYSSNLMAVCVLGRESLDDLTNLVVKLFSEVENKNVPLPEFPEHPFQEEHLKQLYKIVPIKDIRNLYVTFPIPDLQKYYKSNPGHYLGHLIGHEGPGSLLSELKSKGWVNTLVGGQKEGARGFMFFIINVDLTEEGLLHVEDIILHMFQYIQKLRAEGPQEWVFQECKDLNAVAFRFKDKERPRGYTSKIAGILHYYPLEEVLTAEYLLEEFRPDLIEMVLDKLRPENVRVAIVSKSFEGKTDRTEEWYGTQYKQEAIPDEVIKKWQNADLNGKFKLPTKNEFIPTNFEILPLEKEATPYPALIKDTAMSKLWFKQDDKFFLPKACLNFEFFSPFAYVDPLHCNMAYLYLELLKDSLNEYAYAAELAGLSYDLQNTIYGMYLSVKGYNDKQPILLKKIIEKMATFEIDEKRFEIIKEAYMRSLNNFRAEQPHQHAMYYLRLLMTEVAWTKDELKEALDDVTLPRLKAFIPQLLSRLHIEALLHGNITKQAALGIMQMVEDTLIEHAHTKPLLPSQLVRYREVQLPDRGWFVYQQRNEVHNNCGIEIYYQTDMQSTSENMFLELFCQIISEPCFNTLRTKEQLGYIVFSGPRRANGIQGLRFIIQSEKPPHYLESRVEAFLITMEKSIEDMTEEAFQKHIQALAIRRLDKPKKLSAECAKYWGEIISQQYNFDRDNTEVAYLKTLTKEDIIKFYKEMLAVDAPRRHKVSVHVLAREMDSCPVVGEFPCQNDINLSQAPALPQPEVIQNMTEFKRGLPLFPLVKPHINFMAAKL

HEK293 [28] = experiment: optical interference in Abeta FP readout, dose response, artefact control for IDE activator project, biochemical, fluorescence polarization (AID 588442); assay type: functional, cell-based; conditions: Homo sapiens
Insulin-degrading enzyme [29] = target: T4, Insulin-degrading enzyme; experiment: recombinant IDE activation, cell-free – biochemical, fluorescence polarization, counter-screen for IDE activator project, dose response (AID 588681)

Chain of Glycogen synthase kinase-3 beta (P49841 whole entry): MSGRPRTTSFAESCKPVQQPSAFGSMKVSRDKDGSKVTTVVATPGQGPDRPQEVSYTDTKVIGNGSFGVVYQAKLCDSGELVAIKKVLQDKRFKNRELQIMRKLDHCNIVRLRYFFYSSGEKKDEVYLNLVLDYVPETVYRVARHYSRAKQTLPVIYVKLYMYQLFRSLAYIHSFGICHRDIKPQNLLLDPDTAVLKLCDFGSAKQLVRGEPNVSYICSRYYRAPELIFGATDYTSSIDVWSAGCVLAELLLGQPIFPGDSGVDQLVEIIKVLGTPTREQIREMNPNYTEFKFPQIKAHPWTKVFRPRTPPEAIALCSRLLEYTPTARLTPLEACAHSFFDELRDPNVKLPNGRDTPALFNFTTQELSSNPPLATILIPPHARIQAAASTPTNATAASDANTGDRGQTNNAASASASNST
Chain of Protein disulfide-isomerase (P07237 whole entry): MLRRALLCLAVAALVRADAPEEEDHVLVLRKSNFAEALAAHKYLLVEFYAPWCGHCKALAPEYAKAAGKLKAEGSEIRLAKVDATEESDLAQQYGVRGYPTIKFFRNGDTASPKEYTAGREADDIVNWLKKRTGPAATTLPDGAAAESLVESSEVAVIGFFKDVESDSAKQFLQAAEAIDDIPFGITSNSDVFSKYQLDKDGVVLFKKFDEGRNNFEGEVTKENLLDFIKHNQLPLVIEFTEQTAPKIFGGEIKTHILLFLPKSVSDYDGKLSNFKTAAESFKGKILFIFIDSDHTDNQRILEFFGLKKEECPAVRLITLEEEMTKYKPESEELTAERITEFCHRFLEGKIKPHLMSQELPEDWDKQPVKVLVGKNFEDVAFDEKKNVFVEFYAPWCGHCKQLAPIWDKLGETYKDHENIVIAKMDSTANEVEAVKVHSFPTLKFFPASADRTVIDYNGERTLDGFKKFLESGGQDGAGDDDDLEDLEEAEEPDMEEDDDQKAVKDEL
Chain of Multidrug resistance protein CDR1 (P43071 whole entry, looked up): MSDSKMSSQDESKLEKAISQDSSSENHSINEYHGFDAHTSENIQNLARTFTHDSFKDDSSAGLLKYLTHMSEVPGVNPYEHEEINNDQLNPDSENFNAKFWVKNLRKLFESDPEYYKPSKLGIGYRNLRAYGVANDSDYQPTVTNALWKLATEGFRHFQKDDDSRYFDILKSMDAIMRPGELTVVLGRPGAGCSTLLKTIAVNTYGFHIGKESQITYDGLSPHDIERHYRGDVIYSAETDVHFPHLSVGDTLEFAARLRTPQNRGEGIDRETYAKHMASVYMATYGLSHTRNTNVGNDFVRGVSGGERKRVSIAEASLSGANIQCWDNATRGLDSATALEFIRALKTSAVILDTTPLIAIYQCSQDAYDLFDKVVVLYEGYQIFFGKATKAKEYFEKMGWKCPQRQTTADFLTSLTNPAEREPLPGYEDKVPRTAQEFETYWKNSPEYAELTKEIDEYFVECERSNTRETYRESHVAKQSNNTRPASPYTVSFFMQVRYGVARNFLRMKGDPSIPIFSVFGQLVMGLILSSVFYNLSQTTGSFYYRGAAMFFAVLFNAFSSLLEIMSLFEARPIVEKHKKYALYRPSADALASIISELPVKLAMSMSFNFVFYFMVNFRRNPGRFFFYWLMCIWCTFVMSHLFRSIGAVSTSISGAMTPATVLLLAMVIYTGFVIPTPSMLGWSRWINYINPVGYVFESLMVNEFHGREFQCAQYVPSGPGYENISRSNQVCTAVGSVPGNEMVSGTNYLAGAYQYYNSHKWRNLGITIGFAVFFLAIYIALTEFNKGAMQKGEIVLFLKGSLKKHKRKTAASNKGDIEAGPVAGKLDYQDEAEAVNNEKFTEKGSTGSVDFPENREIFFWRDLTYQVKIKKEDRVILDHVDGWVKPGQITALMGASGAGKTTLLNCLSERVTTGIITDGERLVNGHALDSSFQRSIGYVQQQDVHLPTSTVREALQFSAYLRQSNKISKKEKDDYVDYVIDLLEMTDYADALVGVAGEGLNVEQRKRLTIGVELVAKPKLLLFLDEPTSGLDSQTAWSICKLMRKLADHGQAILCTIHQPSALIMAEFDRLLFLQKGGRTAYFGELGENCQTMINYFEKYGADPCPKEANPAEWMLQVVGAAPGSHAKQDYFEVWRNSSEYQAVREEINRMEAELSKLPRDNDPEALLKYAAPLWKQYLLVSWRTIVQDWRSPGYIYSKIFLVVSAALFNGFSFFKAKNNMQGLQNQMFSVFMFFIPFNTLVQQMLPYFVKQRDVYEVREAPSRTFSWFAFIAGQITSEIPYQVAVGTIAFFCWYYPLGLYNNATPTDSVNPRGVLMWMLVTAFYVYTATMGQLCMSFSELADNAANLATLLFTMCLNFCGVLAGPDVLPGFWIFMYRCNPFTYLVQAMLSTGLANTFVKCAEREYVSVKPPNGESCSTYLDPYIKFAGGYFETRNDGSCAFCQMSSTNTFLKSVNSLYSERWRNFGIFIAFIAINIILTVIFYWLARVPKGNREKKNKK
Chain of Cyclin-dependent kinase 19 (Q9BWU1 whole entry): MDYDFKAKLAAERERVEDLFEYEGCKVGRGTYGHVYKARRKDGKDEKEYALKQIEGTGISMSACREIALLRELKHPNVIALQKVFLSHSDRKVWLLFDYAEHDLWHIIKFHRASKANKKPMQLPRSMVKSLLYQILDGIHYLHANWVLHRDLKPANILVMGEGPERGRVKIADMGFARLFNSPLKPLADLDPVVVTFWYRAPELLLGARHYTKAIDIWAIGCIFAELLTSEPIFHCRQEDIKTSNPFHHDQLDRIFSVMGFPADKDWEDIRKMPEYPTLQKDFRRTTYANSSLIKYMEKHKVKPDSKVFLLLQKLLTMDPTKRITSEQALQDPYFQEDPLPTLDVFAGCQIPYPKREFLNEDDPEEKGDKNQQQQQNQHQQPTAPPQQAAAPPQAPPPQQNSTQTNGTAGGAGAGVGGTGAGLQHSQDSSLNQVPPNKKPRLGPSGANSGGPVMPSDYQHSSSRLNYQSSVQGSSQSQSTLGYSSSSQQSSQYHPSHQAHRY
Chain of ALK tyrosine kinase receptor (Q9UM73 whole entry): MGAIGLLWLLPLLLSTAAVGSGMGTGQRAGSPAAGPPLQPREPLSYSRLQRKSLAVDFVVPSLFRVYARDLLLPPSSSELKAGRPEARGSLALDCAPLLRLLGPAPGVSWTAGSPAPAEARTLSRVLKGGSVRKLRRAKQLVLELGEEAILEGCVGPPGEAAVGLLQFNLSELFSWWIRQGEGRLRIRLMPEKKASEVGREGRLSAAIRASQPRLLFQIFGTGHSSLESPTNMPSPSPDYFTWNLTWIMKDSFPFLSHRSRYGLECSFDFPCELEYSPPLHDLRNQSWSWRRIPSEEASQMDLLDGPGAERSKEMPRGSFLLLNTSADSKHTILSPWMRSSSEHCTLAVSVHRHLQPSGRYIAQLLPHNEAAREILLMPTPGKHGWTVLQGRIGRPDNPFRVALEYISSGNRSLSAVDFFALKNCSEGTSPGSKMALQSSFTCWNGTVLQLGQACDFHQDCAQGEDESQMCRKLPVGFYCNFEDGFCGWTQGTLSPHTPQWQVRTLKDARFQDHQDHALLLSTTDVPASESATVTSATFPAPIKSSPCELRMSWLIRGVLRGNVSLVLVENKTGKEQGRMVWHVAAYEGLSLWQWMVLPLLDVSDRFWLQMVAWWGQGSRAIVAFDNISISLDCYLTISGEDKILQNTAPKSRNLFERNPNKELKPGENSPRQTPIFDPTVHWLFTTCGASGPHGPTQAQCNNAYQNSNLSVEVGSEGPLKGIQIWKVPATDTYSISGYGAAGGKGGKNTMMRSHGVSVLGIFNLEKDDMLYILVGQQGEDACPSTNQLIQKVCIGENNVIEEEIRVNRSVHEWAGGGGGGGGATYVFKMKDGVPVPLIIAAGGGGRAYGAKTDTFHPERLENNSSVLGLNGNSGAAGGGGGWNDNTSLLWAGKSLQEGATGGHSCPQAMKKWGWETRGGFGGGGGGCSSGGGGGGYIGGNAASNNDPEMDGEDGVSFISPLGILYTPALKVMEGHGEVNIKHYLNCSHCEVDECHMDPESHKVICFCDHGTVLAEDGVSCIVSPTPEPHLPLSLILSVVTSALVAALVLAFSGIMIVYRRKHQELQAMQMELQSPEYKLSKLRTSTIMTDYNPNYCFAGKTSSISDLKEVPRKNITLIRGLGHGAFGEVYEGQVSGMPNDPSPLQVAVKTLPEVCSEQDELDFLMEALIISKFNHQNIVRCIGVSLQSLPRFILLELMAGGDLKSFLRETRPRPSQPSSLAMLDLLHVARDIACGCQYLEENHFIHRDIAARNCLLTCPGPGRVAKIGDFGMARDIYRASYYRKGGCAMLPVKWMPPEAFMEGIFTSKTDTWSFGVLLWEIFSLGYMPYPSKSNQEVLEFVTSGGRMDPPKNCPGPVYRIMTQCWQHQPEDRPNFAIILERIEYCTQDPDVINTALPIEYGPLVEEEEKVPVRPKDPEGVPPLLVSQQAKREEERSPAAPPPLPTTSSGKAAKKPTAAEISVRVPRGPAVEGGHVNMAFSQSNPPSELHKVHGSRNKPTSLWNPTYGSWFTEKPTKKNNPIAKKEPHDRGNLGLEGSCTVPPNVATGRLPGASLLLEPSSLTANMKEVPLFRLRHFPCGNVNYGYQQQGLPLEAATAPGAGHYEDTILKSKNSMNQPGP
Chain of Glycogen synthase kinase-3 alpha (P49840 whole entry): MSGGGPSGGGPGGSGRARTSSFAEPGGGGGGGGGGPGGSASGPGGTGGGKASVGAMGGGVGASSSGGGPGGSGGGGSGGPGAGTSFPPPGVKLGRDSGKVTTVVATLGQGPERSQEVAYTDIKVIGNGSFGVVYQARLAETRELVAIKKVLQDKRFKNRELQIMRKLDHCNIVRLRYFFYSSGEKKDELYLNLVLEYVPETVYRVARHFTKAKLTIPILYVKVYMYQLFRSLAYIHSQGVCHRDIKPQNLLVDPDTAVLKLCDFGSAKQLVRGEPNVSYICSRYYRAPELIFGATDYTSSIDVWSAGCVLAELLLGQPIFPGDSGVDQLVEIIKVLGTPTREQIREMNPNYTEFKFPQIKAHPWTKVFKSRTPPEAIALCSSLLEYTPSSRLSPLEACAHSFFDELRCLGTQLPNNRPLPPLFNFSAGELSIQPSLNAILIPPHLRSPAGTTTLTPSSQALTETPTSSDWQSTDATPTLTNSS

CCOc1ccc(-n2c(SCc3ccc([N+](=O)[O-])cc3)nnc2-c2ccc(OC)cc2)cc1
IC50 [1]: > 20 µM (inactive)
AC50 (CAAX prenyl protease 2 [2]): 102 nM (active)
EC50 [3]: > 53 µM (inactive)
AC50 (CAAX prenyl protease 2 [4]): 1.12 µM (active)
IC50 [5]: 1.68 µM (active)

O=C(Nc1cccc(Cl)c1)Nc1ccnc(-c2cccnc2)n1
Absolute IC50 (XBP1) (X-box-binding protein 1): 10 µM
AC50 [6]: 3.97 µM (active)
AC50 [7]: 20.8 µM (active)
AC50 [8]: 716 nM (active)

CCN(CC)CCNC(=O)C(C(=O)c1ccccc1)n1ccccc1=O (stereo unspecified)
AC50 [9]: 2.16 µM (active)

CC(C)=C1C2CCC1C1C(=O)N(c3nc(-c4ccc(C(C)C)cc4)c(C)s3)C(=O)C21 (stereo unspecified)
EC50 [10]: 3.79 µM (active)

CC1CCN(C(=O)Cn2c3ccccc3c3nc4n(c(=O)c32)CCS4)CC1
AC50 (Candida albicans [11]): 1.97 µM (active)
EC50 [12]: 979 nM (active)
EC50 [13]: > 160 µM (inconclusive)
AC50 (Candida albicans [14]): 108 µM (active)

CSc1ccc(-c2sc(Nc3ccccc3)n[n+]2-c2ccccc2)cc1
EC50 [15]: 7.33 µM (active)
EC50 [16]: > 32 µM (inactive)

COc1ccc(COC[C@H](C)N2C[C@@H](C)[C@H](CN(C)S(=O)(=O)c3ccc(F)cc3)OCCCC[C@H](C)Oc3ccc(NC(=O)Nc4ccccc4)cc3C2=O)cc1
AC50 [17]: 0.294 nM (active)
AC50 [18]: 0.18 nM (active)
AC50 (Erythrocyte): 1 nM (active)
AC50 [19]: 0.8 nM (active)

COc1ccc(N2CCN(C(=O)c3ccc(CNc4c(N5CCCC(C)C5)c(=O)c4=O)cc3)CC2)cc1 (stereo unspecified)
CC50 [20]: > 100 µM (inconclusive)
CC50 [21]: > 50 µM (inconclusive)
CC50 [22]: > 98.4 µM (active)

O=C(O)c1c(Cl)ccc2cc(-n3cccc3)cnc12
Ki [23]: 3.98 µM (active)
Ki [24]: > 100 µM (inactive)

CC(C)CCNC(=O)CSc1nc2c(c(=O)[nH]1)CCC2
CC50 [25]: > 100 µM (active)

Cc1ccc2c(c1)c1c(n2CC(O)CNC2CCCC2)CCCC1 (stereo unspecified)
IC50 (HEK293 [26]): 61.9 µM (inactive)
EC50 (Insulin-degrading enzyme [27]): > 54.7 µM (inactive)
EC50 (HEK293 [28]): > 55.9 µM (inactive)
EC50 (Insulin-degrading enzyme [29]): > 54.7 µM (inactive)
